{
  "source": "patent US20240325330A1",
  "about": "“NEW METHOD TO TREAT ACIDOSIS RELATED DISEASES WITH ACETOACETATE” (INSTITUT NATIONAL DE LA SANTÉ ET DE LA RECHERCHE MÉDICALE, priority 2021, published 2024)",
  "assay_type_in_all_cases": "cell-based",
  "key": {"[1]": {"test_system": "human monocyte-derived macrophages (Mφ, LA-Mφ)", "assay": "Cytokine secretion after LPS stimulation (ELISA)", "settings": "day 5, LPS 16 h, FIG. 3", "description": "(§1) Peripheral blood mononuclear cells (PBMC) were obtained from healthy human volunteers (Blood collection center, Angers, France; agreement ANG-2017-01) by standard density-gradient centrifugation on lymphocyte separation medium (Eurobio, Courtaboeuf, France). CD14+ monocytes were then isolated by positive magnetic cell-sorting (Miltenyi Biotec, Bergisch Gladbach, Germany). Monocytes (1×10^6 cells/mL) were cultured in complete medium (CM) consisting of RPMI 1640 (Lonza, Verviers, Belgium) supplemented with 10% fetal calf serum (FCS) (Eurobio), 2 mM L-glutamine, 1 mM sodium pyruvate, 0.1 mM non-essential amino acids, 10 mM HEPES, 100 U/mL penicillin and 100 μg/mL streptomycin (all from Lonza) in the presence of 50 ng/mL GM-CSF (R&D Systems, Minneapolis, MN).\nExperiments were performed in the presence of 10 mM lactic acid (Sigma-Aldrich, St Louis, MO) resulting in a pHe of 6.5 to generate LA-Mφ (lactic acidosis conditioning), 12.35 mM HCl to reach a final pHe of 6.5 and to generate HCl-Mφ(acidosis conditioning), 10 mM sodium lactate (Sigma-Aldrich) to generate lactate-Mφ (lactosis conditioning, pH 7.3), in the absence or presence of 5 mM lithium acetoacetate (AcAc) (Sigma-Aldrich, St Louis, MO).\nDay 5 GM-Mϕ, GM+LA-Mϕ and GM+LA-Mϕ+AcAc were stimulated with 200 ng/mL LPS (Sigma-Aldrich). Cytokines were quantified by ELISA (R&D Systems) in the supernatants collected at 16 h."}, "[2]": {"test_system": "human monocytes differentiated into macrophages under lactic acidosis (LA-Mφ)", "assay": "Mitochondrial mass (mtDNA copy number) and NRF2 mRNA expression", "settings": "data not shown", "description": "(§2) Peripheral blood mononuclear cells (PBMC) were obtained from healthy human volunteers (Blood collection center, Angers, France; agreement ANG-2017-01) by standard density-gradient centrifugation on lymphocyte separation medium (Eurobio, Courtaboeuf, France). CD14+ monocytes were then isolated by positive magnetic cell-sorting (Miltenyi Biotec, Bergisch Gladbach, Germany). […]\nCells were lysed in Trizol reagent (Life Technologies, Thermo Fisher Scientific), and total RNA was extracted with the RNeasy Micro kit (Qiagen, Hilden, Germany) and then reverse-transcribed with the Superscript II reverse transcriptase (Life Technologies). Levels of mRNA encoding the indicated proteins were then analyzed by subjecting the cDNA obtained by reverse transcription to qPCR. Relative quantification was performed by the 2^−ΔΔCT method, with RPS18, EF1A, TBP, RPL13A and PPIA as references. Results are expressed as relative mRNA levels.\nMitochondrial DNA (mtDNA) content was determined by qPCR with primers specific for the ND4 and COX1 genes, and was weighted according to nuclear DNA levels, which were quantified by analyzing […], as previously described (23)."}, "[3]": {"test_system": "human monocytes differentiated into macrophages under lactic acidosis (LA-Mφ)", "assay": "Mitochondrial network architecture, morphology and size (confocal microscopy, TEM)", "settings": "5 mM AcAc, 10 mM lactic acid; compared with Mφ; data not shown", "description": "as §1, with “MN). […]” for “MN).”\nCells were first incubated with 150 nM MitoTracker Green (Thermo Fisher Scientific) in CM medium at 37° C. for 10 min. […] Image blobs were then analyzed with the regionprops function of Matlab.\nWe fixed 5×10^6 macrophages by incubation for 16 h at 4° C. with 2.5% electron-grade glutaraldehyde (LFD Distribution, Sainte Consorce, France) in 0.1 M phosphate buffer pH 7.4. […] Stitched images were reviewed and scored by a trained electron histopathologist for the presence of autophagy and mitophagy vacuoles. Mitochondrial size was determined by measuring the maximum Feret diameter on TEM images."}, "[4]": {"test_system": "human monocytes differentiated into macrophages under lactic acidosis (LA-Mφ)", "assay": "Intracellular ATP levels in macrophages under lactic acidosis", "settings": "5 mM AcAc, 10 mM lactic acid, FIG. 1A", "description": "as §2\nThe intracellular levels of ATP in whole-cell lysates were determined with enzymatic assays (Abcam, Cambridge, UK), according to the manufacturer's instructions. ATP was quantified in (i) macrophages generated in the absence (Mφ) or presence of lactic acid (LA-Mφ) or of lactic acid and acetoacetate (LA-Mφ+AcAc), (ii) macrophages with or without depolarized mitochondria (“Depol” and “Pol” populations, respectively) isolated from day 3 LA-Mφ by flow cytometry using MitoTracker Green and MitoTracker Deep Red probes (purity>99%) and, (iii) PBMC isolated from septic shock patients (n=3) were cultured for 24 h in a medium containing 0.5 g/L glucose, supplemented with 5 mM of acetoacetate (AcAc) or with 2 g/L of glucose (Glc). […]"}, "[5]": {"test_system": "human monocytes differentiated into macrophages under lactic acidosis (LA-Mφ)", "assay": "Mitochondrial membrane potential (MitoTracker Green / Deep Red flow cytometry) in macrophages under lactic acidosis", "settings": "5 mM AcAc, 10 mM lactic acid (pHe 6.5), LA-Mφ+AcAc vs LA alone; data not shown", "description": "as §1, with “MN). […]” for “MN).”\nMitochondrial membrane potential was assessed by incubating with 10 nM MitoTracker Green and 5 nM MitoTracker DeepRed (Thermo Fisher Scientific, Waltham, MA) in PBS containing 1% (w/v) BSA in PBS (PBS/BSA) at 37° C. for 15 min. […] Flow cytometry data were acquired with a FACSCanto II flow cytometer (BD Biosciences, San Jose, CA) and analyzed with FlowJo software (Tree Star, Ashland, OR)."}, "[6]": {"test_system": "human monocytes exposed to lactic acid", "assay": "Intracellular pH (SNARF probe, flow cytometry)", "settings": "10 mM lactic acid with 5 mM AcAc; FIG. 2E", "description": "as §2\nIntracellular pH (pHi) was measured by incubating 3×10^5 Mφ with 500 nM pH-sensitive dye carboxy-SNARF-AM (Life Technologies, Carlsbad, CA) in PBS/BSA at 37° C. for 20 min and then performing flow cytometry analysis. We determined pHi as the ratio of fluorescence intensities at two emission wavelengths (585/42 nm and 700/60 nm PMTs). SNARF fluorescence in macrophages was calibrated with a high-potassium buffer (39.6 mM NaCl, 120 mM KCl, 2.3 mM CaCl2), 1 mM MgCl2, 5 mM HEPES, 10 mM glucose) at pH values of 6.5 to 8, in the presence of 10 μM nigericin (Sigma-Aldrich); nigericin exchanges external potassium with internal protons to equilibrate extracellular and intracellular pH."}},
  "data": [
    {"smiles": "CC(=O)CC(=O)[O-].[Li+]", "note": "[AcAc, lithium acetoacetate]", "values": [
      {"measurement": "combined effect of AcAc and lactic acid on capacity to produce inflammatory cytokines and trophic factors", "setting": "[1]; LA-Mφ+AcAc", "value": "acted synergistically"},
      {"measurement": "cytokine phenotype of monocytes differentiated in the presence of AcAc", "setting": "[1]; ELISA", "value": "TNFαhigh IL-1βhigh IL-6high OSMhigh and VEGFhigh phenotype"},
      {"measurement": "mitochondrial mass", "setting": "[2]; LA-Mφ+AcAc (5 mM AcAc, 10 mM lactic acid)", "value": "no reduction of the mitochondrial mass"},
      {"measurement": "expression of NRF2", "setting": "[2]; LA-Mφ+AcAc relative to LA-Mφ", "value": "tend to increase"},
      {"measurement": "mitochondrial network architecture (morphology and size)", "setting": "[3]", "value": "protected the mitochondrial network architecture"},
      {"measurement": "intracellular levels of ATP", "setting": "[4]", "value": "restored the intracellular levels of ATP"},
      {"measurement": "mitochondrial depolarization", "setting": "[5]", "value": "did not exhibit the mitochondrial depolarization"},
      {"measurement": "immediate short-term decrease in pHi induced by extracellular acidosis", "setting": "[6]", "value": "remained detectable"}
    ]}
  ]
}
